Counter-ions that a name gives are not always drawn. Like-named read-outs stand apart in the source and are kept apart here.
Legend:
[1] = test system: pseudotyped lentiviruses harboring S-protein of SARS-CoV-2; experiment: microbe, parasite or virus in culture; format: cell-based
[2] = test system: pseudotyped viruses carrying N501Y mutation in S protein; format: cell-based, SARS-CoV-2
[3] = test system: pseudotyped viruses carrying K417N mutation in S protein; format: cell-based, SARS-CoV-2
[4] = test system: pseudotyped viruses carrying E484K mutation in S protein; format: cell-based, SARS-CoV-2
[5] = test system: pseudotyped viruses, triple mutant (N501Y/K417N/E484K) S protein; format: cell-based, SARS-CoV-2
[6] = Severe acute respiratory syndrome coronavirus 2, 24 h

| SMILES | luciferase reporter activity (viral infection) [1] | effectiveness against SARS-CoV-2 spike pseudotyped viruses compared with VSV-G pseudotyped viruses (luciferase activity) ([1]; 24 h) | IC50 [1, 6] [µM] | other results |
| --- | --- | --- | --- | --- |
| CN(C)CCCC1(c2ccc(F)cc2)OCc2cc(C#N)ccc21 (centres unmarked) [Citalopram] | significantly reduced luciferase reporter activity | more effective | 27.5 | selectivity index (SI) [1]: 9.97 |
| CN(C)CCCN1c2ccccc2CCc2ccc(Cl)cc21 [Clomipramine] | significantly reduced luciferase reporter activity |  |  | effectiveness against SARS-CoV-2 spike pseudotyped viruses compared with VSV-G pseudotyped viruses (luciferase activity) [1]: more effective |
| OCCN1CCN(CCC=C2c3ccccc3Sc3ccc(C(F)(F)F)cc32)CC1 [Flupenthixol] | Decline of luciferase reporter activity | more effective | 1.07 | selectivity index (SI) [1]: 18.11 |
| NNCCc1ccccc1 [Phenelzine] | failed to prevent the viral entry |  |  |  |
| CNCCCN1c2ccccc2CCc2ccccc21 [Desipramine] | significantly reduced luciferase reporter activity | more effective | 8.1 |  |
| CNCCC(Oc1ccc(C(F)(F)F)cc1)c1ccccc1 (centres unmarked) [Fluoxetine] | significantly reduced luciferase reporter activity |  |  | effectiveness against SARS-CoV-2 spike pseudotyped viruses compared with VSV-G pseudotyped viruses (luciferase activity) [1]: more effective; luciferase reporter activity, WT spike pseudovirus [1]: significantly reduced the luciferase reporter activity; luciferase reporter activity, N501Y pseudovirus [2]: significantly reduced the luciferase reporter activity; luciferase reporter activity, K417N pseudovirus [3]: significantly reduced the luciferase reporter activity; luciferase reporter activity, E484K pseudovirus [4]: significantly reduced the luciferase reporter activity; luciferase reporter activity, triple mutant (N501Y/K417N/E484K) pseudovirus [5]: significantly reduced the luciferase reporter activity |
| O=c1[nH]c2ccccc2n1C1CCN(CCCC(c2ccc(F)cc2)c2ccc(F)cc2)CC1 [Pimozide] | Decline of luciferase reporter activity | more effective | 4.54 |  |
| CCOc1ccccc1OC(c1ccccc1)C1CNCCO1 (centres unmarked) [Reboxetine] | significantly reduced luciferase reporter activity | more effective | 17.7 |  |
| COc1ccc(C2CNC(=O)C2)cc1OC1CCCC1 (centres unmarked) [Rolipram] | failed to prevent the viral entry |  |  |  |
| N[C@@]1(c2ccccc2Cl)CCC[C@@H](O)C1=O [2R,6R-HNK, 2R, 6R-Hydroxynorketamine] | neither ketamine nor the metabolites were effective |  |  |  |
| Fc1ccc([C@@H]2CCNC[C@H]2COc2ccc3c(c2)OCO3)cc1 [Paroxetine] | significantly reduced luciferase reporter activity | more effective | 12.6 | selectivity index (SI) [1]: 1.76 |
| COc1ccc(C(CN(C)C)C2(O)CCCCC2)cc1 (centres unmarked) [Venlafaxine] | significantly reduced luciferase reporter activity |  | 36.4 |  |
| NC(=O)N1c2ccccc2C=Cc2ccccc21 [Carbamazepine] | failed to change the viral infection |  |  |  |
| CN(C)C(=O)COC(=O)Cc1ccc(OC(=O)c2ccc(NC(=N)N)cc2)cc1 [Camostat mesylate] | significantly reduced |  |  |  |
| CN(C)CCCN1c2ccccc2CCc2ccccc21 [Imipramine] | significantly reduced luciferase reporter activity |  | 3.01 | IC50 [1]: 3 µM; selectivity index (SI) [1]: 22.83 |
| N[C@]1(c2ccccc2Cl)CCC[C@H](O)C1=O [2S,6S-HNK, 2S, 6S-Hydroxynorketamine] | neither ketamine nor the metabolites were effective |  |  |  |
| CN(C)CCCN1c2ccccc2Sc2ccc(Cl)cc21 [Chlorpromazine] | Decline of luciferase reporter activity | more effective | 0.973 | IC50 [1]: 0.972 µM |
| CNC1(c2ccccc2Cl)CCCCC1=O (centres unmarked) [Ketamine] | neither ketamine nor the metabolites were effective |  |  |  |
